Values quoted from earlier work in patent US20220331213A1, “ANTIMICROBIAL COMPOSITIONS COMPRISING A BENZOIC ACID ANALOG AND ACID PH BUFFERS” (eHealth Nexus LLC, priority 2021, published 2022).
One block for each compound: values may come before it.

Legend:
[1] = for pK2 / pK1: aqueous; for pK2: second dissociation of di-/polycarboxylic acid; for pK1: first dissociation of di-/polycarboxylic acid; for pKa (acid dissociation constant): aqueous pKa
rhinovirus = conditions: 2% salicylic acid on skin

pK2 [1]: about 5.4
SMILES: O=C(O)CCCCC(=O)O [adipic acid]

pK1 [1]: about 2.9
SMILES: O=C(O)CC(O)(CC(=O)O)C(=O)O [citric acid]

SMILES: O=C(O)[C@H](O)[C@@H](O)[C@H](O)[C@H](O)CO [gluconic acid]
pKa (acid dissociation constant) [1]: 3.85

SMILES: O=C(O)CCCC(=O)O [glutaric acid]
pKa (acid dissociation constant) [1]: 3.76
pK1 [1]: about 4.3
pK2 [1]: about 5.4

pKa (acid dissociation constant) [1]: ~3.8
SMILES: O=C(O)CO [glycolic acid]

pKa (acid dissociation constant) [1]: 4.82
SMILES: O=C(O)c1cccnc1 [nicotinic acid]

SMILES: O=C(O)c1ccccc1O [salicylic acid]
residual anti-rhinovirus activity on the skin (rhinovirus): diminish over 3 hours
